From patent US20210299076A1, “AMINO ACID FORMULATIONS AND USES THEREOF” (University of Florida Research Foundation, Incorporated, priority 2012, published 2021) come the findings set out here.

Structures are written as SMILES. “And” between values parts separate entries of the source, which are not always exact repeats. Equal entries are not always repeated.

One assay deals with ileum (HCO3− secretion). The assay is described as follows: pH stat HCO3− secretion in ileum. Type of assay: cell-based, mouse. The note with it: 6 mM 3-OMG, absence of lumen and bath HCO3−. The procedure: pH stat studies are performed to determine whether HCO3^− secretion contributes to the unaccounted portion of the Isc. At least two modes of HCO3^− secretion in the mouse small intestine have been identified by the present inventors: 1) Cl^−-dependent, electroneutral Cl^−—HCO3^− exchange, and 2) Cl^−-independent, electrogenic HCO3^− secretion. […] Specifically, HCO3^−-free, poorly buffered solution is added to both sides of the tissues mounted in an Ussing chamber and both sides of the tissues are bubbled with 100% O2. Minimal HCO3^− secretion (0.1±0.01 mEq.h^−1.cm^−2, n=12) is recorded under such conditions. Subsequent addition of HCO3^−-containing buffered solution to the basolateral side and bubbling with 95% O2 and 5% CO2 on that side results in significant HCO3^− secretion 3.8±0.2 mEq.h^−1.cm^−2 (n=9). To determine whether lumen Cl^−-independent HCO3^− secretion plays a role in HCO3^− secretion (in the absence of lumen glucose), pH stat experiments are performed in the absence of lumen Cl^−. In the absence of lumen Cl^−, minimal HCO3^− secretion is recorded (0.4±0.1 pEq.h^−1.cm^−2) (FIG. 5A). […] The HCO3^− secretion in the presence of glucose could be due to a lumen Cl^−-dependent, electroneutral Cl—HCO3^− exchange or a lumen Cl^−-independent anion channel-mediated HCO3^− secretion. To assess the mechanism of glucose-stimulated HCO3^− secretion, glucose is added to the mucosal side.

A further assay has as its system Caco-2 cells. The assay is described as follows: Confocal Ca2+ fluorescence microscopy (Fluo-8) in Caco-2 cells. Format: cell-based. The procedure:
Caco-2 cells are obtained from ATTC and cultured in Dulbecoo's modified Eagle's medium supplemented with 10% fetal calf serum (FCS) and 1% nonessential amino acids at 37° C. and 5% CO2. Caco-2 cells are passaged for 20-25 times and are seeded (2×10^5 cells/dish) on 5 cm petri-dishes and grown until 80% confluence, when the FCS concentration is changed to 5%. Cells are grown for another 10 days before they are used for functional studies.
Caco2 cells grown in 25 mm round coverslips are mounted on the bath chamber RC-21BR attached to series 20 stage adapter (Warner Instruments, CT USA). […] Fluorescence is recorded by argon lasers with excitation at 488 nm and emission at 515 nm. […] Changes are recorded and fluorescence is measured for various cells. […]
To determine the role of intracellular Ca^2+ in glucose-stimulated increase in Isc, intracellular Ca^2+ level is measured in the presence of different concentrations of glucose and 3-OMG, respectively, and in the presence of BAPTA-AM (1,2-bis(o-aminophenoxy)ethane-N,N,N′,N′-tetraacetic acid)—an intracellular calcium-specific chelator. The Ca^2+ responses to glucose and 3-OMG in cultured Caco2 cells loaded with the Ca^2+ indicator fluo 8 are monitored by laser scanning confocal microscopy. […] The mean peak amplitude of calcium fluorescence (F/Fo) with 0.6 mM glucose is calculated to be 1.32±0.1 (n=10).

Assay [1] deals with intracellular cAMP in ileal epithelial cells. The assay is described as follows: Colorimetric intracellular cAMP measurement in ileal villus and crypt cells. Format: cell-based, mouse. The note with it: villus cells. The procedure: Freshly isolated mucosal scrapings of ileal epithelial cells are washed three times in Ringer's solution containing 1.2 mM Ca^2+ at 37° C. […] Cells are treated with 0.1 M HCl to stop endogenous phosphodiesterase activity. The lysates are then used for cAMP assay using cAMP direct immunoassay kit (Calbiochem, USA). The quantitative assay of cAMP uses a polyclonal antibody to cAMP that binds to cAMP in samples in a competitive manner. After a simultaneous incubation at room temperature, the excess reagents are washed away and substrates are added. After a short incubation time, the reaction is stopped and the yellow color generated is read at 405 nm. The intensity of the color is inversely proportional to the concentration of cAMP in standards and samples. cAMP levels are standardized to protein levels from respective fractions and expressed in pmol (mg protein)^−1. Forskolin treated cells are used as a positive control. Glucose and forskolin treated cells are incubated for 45 minutes. All the assays are performed in triplicate and repeated until n=4 different mice.

As to `CO[C@@H]([C@H](O)[C@H](O)CO)[C@@H](O)C=O` [Formulation 3-OMG, 3-O-methylglucose], the “HCO3− secretion” value in the assay with ileum (HCO3− secretion) was found to be 0.1±0.03 μEq.h^−1.cm^−2. The “Mean peak amplitude of calcium fluorescence (F/Fo)” value in the assay on Caco-2 cells (0.6 mM in bath medium, n=10) is 1.2±0.1 and 1.2±0.2; in the assay on Caco-2 cells (6 mM in bathing medium) it was 1.5±0.1. The “Intracellular cAMP level compared to 6 mM glucose” value in assay [1] (3-OMG 6 mM, P<0.01) was “significantly higher”. The “Intracellular cAMP level” value in assay [1] (3-OMG 0.6 and 6 mM, 45 minutes) is “significant increase”.
